Consider 2 substances from US5994055A, “HIV trans-activator Tat binding to CDK7 and activation of CTD phosphorylation” (priority 1997, dated 1999).

Where no end group is shown, it is not given here. [ ]: non-standard residue; d: D form.

Assay [1] has as its target T1, recombinant CAK (CDK7, cyclin H, MAT1) (Homo sapiens, UniProt P50613).
T1 construct: made in house; host or cells: Sf9 insect cells (baculovirus co-infection)
The assay can be described thus: Kinase reaction: phosphorylation of the CTD by recombinant CAK. It is filed as biochemical. As for the experimental part:
Recombinant baculoviruses encoding human CDK7 (Fisher et al., Cell 78:713-724 (1994)), MAT1 (Fisher et al., Cell 83:47-57 (1995)), and an N-terminally 6-histidine tagged version of cyclin H (Kim et al., Cell 77:599-608 (1994)) were constructed as described. 4×10^9 Sf9 insect cells were co-infected with all three baculoviruses (multiplicity of infection for each virus: 5 pfu/cell), incubated 2 days at 28° C., and harvested by centrifugation. Cells were resuspended in 120 ml buffer A (20 mM Na phosphate, 25 mM NaCl, 1 mM PMSF, 1 Ag/ml leupeptin, 2 μg/ml aprotinin, 1 mM DTT (pH 7.4). NaCl concentration was raised to 300 mM and the lysate was clarified by centrifugation and loaded over tandem 5-ml Pharmacia HiTrap Chelating columns loaded with CoCl2 and preequilibrated with buffer B (300 mM NaCl, 20 mM Na phosphate, 10% glycerol (pH 7.2)). The column was washed with buffer B+1 mM DTT and eluted with a linear gradient of 0-200 mM imidazole in buffer B+1 mM DTT. Fractions containing the CAK trimer were pooled, diluted 4-fold in buffer C (20 mM Hepes-NaOH, 1 mM EDTA, 10% glycerol, 1 mM DTT (pH 7.4)), and loaded on a 5 ml Pharmacia HiTrap Q column pre-equilibrated with buffer C. The column was washed with buffer C and eluted with a linear gradient of 25-1000 mM NaCl in buffer C. […]

Assay [2] relates to Tat trans-activation of the HIV LTR. The assay can be described thus: In vitro run-off transcription from the wild-type HIV LTR. It is filed as biochemical. Particulars: increasing concentrations / concentration not stated. As to the method:
The ability of molecules to inhibit Tat trans-activation can be assessed using a variety of in vitro and in vivo assays. For example, Tat trans-activation can be assessed using in vitro run-off transcription reactions with transcription extracts (see, e.g., Current Protocols in Molecular Biology (Ausubel et al., eds., 1997)). In such an assay, nuclear transcription extracts are prepared from cultured mammalian cells according to standard procedures (see, e.g., Dignam et al., Nuc. Acids. Res. 11: 1475-1489 (1983)). Recombinant Tat protein is isolated according to standard procedures and added to the nuclear transcription extract along with the other components of the transcription reaction such as nucleotides (see, e.g., Cujec et al., supra; Example V). The reaction is also supplied with HIV promoter DNA sequences operably linked to a structural gene.
Run-off transcription reactions from the wild-type HIV LTR and AdMLT promoters linearized with NcoI and HindIII respectively, were carried out as described (Okamoto et al., Proc. Natl. Acad. Sci. USA 93:11575-11579 (1996); Cujec et al., Mol. Cell. Biol. 17:1817-1823 (1997)). […]

Another assay relates to DHFR promoter. The assay can be described thus: In vitro transcription from the DHFR promoter (G-less cassette). It is filed as biochemical. Particulars: concentration not given. As to the method: Run-off transcription reactions from the wild-type HIV LTR and AdMLT promoters linearized with NcoI and HindIII respectively, were carried out as described (Okamoto et al., Proc. Natl. Acad. Sci. USA 93:11575-11579 (1996); Cujec et al., Mol. Cell. Biol. 17:1817-1823 (1997)). Transcription reactions containing the DHFR promoter (500 ng) fused to a G-less cassette (linearized at Nco I) were supplemented with 3 mM (NH4)2 SO4, 2% PEG 8000, 50 units of T1 RNase (Boehringer-Mannheim), 500 U of RNase inhibitor (Boehringer-Mannheim) and contained 5 μM instead of 40 μM of unlabeled UTP. Phosphocreatine, poly (d)I-(d)C, and poly(rI-rC) were omitted from the reactions.

Assay [3] concerns Tat trans-activation of the HIV LTR in COS-7 cells. The assay can be described thus: Peptide electroporation into COS-7 cells with pHIVΔKBCAT reporter, RNase protection assay. The assay is classed as cell-based.

T1 sequence (P51946 whole entry): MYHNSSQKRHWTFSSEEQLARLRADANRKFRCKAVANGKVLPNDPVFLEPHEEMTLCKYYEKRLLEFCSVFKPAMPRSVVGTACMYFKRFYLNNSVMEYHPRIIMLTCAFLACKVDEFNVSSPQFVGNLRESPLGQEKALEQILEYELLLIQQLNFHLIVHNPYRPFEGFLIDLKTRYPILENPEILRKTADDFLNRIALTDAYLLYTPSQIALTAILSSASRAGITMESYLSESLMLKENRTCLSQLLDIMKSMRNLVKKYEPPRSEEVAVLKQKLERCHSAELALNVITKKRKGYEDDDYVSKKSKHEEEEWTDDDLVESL
T1 sequence (P50613 2-346): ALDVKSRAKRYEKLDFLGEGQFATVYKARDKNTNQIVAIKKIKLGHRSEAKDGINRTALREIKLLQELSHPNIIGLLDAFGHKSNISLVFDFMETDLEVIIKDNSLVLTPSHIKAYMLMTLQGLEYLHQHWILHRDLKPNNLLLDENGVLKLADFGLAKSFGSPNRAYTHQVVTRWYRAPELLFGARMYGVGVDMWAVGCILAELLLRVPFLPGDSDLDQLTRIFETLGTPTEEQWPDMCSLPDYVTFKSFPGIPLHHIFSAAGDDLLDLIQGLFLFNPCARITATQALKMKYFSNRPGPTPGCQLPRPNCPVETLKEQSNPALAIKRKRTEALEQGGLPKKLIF
T1 sequence (P51949 whole entry, further chain): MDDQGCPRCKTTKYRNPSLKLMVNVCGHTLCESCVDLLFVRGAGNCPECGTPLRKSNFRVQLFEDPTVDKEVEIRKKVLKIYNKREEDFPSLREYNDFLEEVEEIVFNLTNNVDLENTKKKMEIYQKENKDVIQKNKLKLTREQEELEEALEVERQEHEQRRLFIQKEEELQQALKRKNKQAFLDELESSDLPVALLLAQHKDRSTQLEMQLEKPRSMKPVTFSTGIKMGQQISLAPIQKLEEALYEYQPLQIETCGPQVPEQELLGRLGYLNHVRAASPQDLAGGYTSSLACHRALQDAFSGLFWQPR

Usually IC50 stands for the concentration that gives 50% inhibition. For ARAFGVPVRTYAHEVVTLWYRA [mC2p], the IC50 in assay [1] was 1.3 µM.
For the substance “HARTVGVWYRAEYARFVTPaVV (HARTVGVWYRAEYARFVTP[dA]VV) [rC2p, control]”, the “effect on the kinase activity of CAK” value in assay [1] (concentration not given) was “no effect”. The Tat trans-activation entry in assay [2] is “did not affect”. For the same substance, the “transcription from the DHFR promoter” value with DHFR promoter was “no effect”. The “transcription in the absence of Tat” value in assay [3] (increasing concentrations, data not presented) is “no effect”. The “ratio of long to short transcripts” value in assay [3] (regardless of peptide concentration) is given as “remained the same”.
